In one experiment the target is BaF3_HER2WT cells (Homo sapiens, UniProt P04626). The experiment is described as follows: Cell growth inhibition assay (CellTiterGlo), BaF3_HER2WT. It is filed as cell-based. To be noted: 3-day treatment, CellTiterGlo, read-out: Cell growth inhibition activity, HER2 WT. (In ATP-based viability assays light output follows the ATP content of the culture.)
For another experiment, the target named is T1, wtEGFR (Homo sapiens, UniProt P00533).
T1 construct: purchased Invitrogen PR7295B
The experiment is described as follows: HotSpot radiometric kinase activity assay, wtEGFR. The note with it: biochemical activity, 4 nM wtEGFR, 10 μM 33P-ATP, 2 hours, read-out: EGFR WT IC50. How it is done: (§1) The purpose of the wtERBB2, ERBB2-A775_G776insYVMA (ERBB2YVMA), wtEGFR biochemical assay was to evaluate the inhibition (% inhibition and IC50 values) of the small molecule inhibitors by using the “HotSpot” radiometric kinase activity assay. HotSpot assays monitor the production of kinase substrate by the radioactive gamma phosphate of adenosine triphosphate (33P-ATP) during biochemical reactions. HotSpot assays was performed in steps upon completion of the kinase reaction: deposition of a reaction mixture aliquot onto P81 ion exchange paper, extensive washing of the aforementioned P81 paper using phosphoric acid to remove unbound radiolabeled 33P-ATP from the P81 paper, and finally visualization and quantification of the dried P81 paper utilizing a phosphoimager. […] Typical reaction solutions (10 μL, final reaction volume) contained the following buffer conditions: 20 mM Hepes (pH 7.5), 10 mM MgCl2, 1 mM EGTA, 0.01% Brij35, 0.02 mg/mL BSA, 0.1 mM Na3VO4, 2 mM DTT, 1% DMSO. The assay was primed by preparing a fresh 0.2 mg/mL solution of pEY (Sigma Cat: P7244) substrate in the reaction buffer and supplementing that solution with […] of MnCl2 as substrate cofactor (Sigma Cat: M9522). The kinase of interest was then added to the solution at the appropriate concentration (30 nM wtERBB2 from, or 20 nM ERBB2YVMA, or 4 nM wtEGFR) and gently mixed prior to delivery of compound in 100% DMSO by acoustic dispensing (Beckman Echo550). Compound, Kinase, and substrate were allowed to incubate for 20 min at room temperature prior to the initiation of the reaction by addition of 33P-ATP (PerkinElmer Cat: NEG602, final conc 10 μM). […] IC50 determinations were made from a plot of kinase activity as a function of inhibitor concentration fit to the 4-parameter IC50 equation with the enzyme concentration held constant using GraphPad Prism (San Diego).

A further experiment addresses T2, wtERBB2 (Her2 WT) (Homo sapiens, UniProt P04626).
T2 construct: purchased Reaction Biology Kin-21-497
The experiment is described as follows: HotSpot radiometric kinase activity assay, wtERBB2. The note with it: biochemical activity, 30 nM wtERBB2, 10 μM 33P-ATP, 2 hours. How it is done:
as §1

The next experiment concerns the target BaF3_EGFRWT cells (Homo sapiens, UniProt P00533). Nature of the experiment: Cell growth inhibition assay (CellTiterGlo), BaF3_EGFRWT. To be noted: 3-day treatment, CellTiterGlo, read-out: Cell growth inhibition activity, EGFR WT. It is filed as cell-based.
The target of another experiment is BaF3_HER2YVMA cells (Homo sapiens, UniProt P04626, DUP772-775, cells depend on it). The experiment is described as follows: Cell growth inhibition assay (CellTiterGlo), BaF3_HER2YVMA. It is filed as cell-based. The note with it: 3-day treatment, CellTiterGlo, read-out: Cell growth inhibition activity, HER2 - YVMA.
Experiment [1] has as its target T3, ERBB2-A775_G776insYVMA (ERBB2YVMA) (Homo sapiens, UniProt P04626, INS775YVMA).
T3 construct: purchased SignalChem E27-13BG
The experiment is described as follows: HotSpot radiometric kinase activity assay, ERBB2YVMA. To be noted: biochemical activity, 20 nM ERBB2YVMA, 10 μM 33P-ATP, 2 hours, read-out: HER2 - YVMA IC50. How it is done:
as §1

BaF3_HER2WT cells, sequence (P04626 whole entry, change not shown): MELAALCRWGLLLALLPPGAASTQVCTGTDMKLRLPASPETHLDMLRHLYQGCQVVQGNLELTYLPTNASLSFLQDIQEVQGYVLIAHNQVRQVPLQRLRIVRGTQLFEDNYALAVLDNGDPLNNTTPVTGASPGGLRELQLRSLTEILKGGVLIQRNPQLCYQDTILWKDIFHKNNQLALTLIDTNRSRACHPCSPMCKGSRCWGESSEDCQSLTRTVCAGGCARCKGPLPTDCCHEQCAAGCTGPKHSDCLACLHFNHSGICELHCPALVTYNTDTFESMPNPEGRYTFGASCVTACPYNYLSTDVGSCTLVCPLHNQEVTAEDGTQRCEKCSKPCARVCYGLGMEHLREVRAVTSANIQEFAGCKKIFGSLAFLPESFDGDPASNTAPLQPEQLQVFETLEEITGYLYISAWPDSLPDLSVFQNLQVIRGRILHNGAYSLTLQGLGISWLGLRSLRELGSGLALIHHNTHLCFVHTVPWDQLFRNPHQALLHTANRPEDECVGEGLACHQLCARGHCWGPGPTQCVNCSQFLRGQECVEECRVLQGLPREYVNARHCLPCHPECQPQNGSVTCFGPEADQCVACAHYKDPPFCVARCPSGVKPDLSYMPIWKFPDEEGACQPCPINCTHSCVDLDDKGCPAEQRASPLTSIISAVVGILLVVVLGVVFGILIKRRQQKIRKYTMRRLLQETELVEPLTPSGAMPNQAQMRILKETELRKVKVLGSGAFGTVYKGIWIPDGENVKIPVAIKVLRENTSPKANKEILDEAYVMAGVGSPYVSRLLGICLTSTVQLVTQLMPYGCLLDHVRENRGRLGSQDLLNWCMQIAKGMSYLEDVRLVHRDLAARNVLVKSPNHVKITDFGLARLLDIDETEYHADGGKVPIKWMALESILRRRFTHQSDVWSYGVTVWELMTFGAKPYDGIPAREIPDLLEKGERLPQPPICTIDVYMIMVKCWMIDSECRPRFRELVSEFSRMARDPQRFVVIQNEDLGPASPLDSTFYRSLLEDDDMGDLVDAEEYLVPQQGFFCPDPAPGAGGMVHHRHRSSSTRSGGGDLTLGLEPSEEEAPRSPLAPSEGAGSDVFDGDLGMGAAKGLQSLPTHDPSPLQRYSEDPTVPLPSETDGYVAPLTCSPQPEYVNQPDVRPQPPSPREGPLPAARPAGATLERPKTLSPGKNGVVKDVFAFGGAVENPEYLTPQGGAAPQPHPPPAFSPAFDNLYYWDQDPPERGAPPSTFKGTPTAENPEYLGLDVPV
T3 sequence (P04626 with tags, fused parts or gaps INS775YVMA limits assumed): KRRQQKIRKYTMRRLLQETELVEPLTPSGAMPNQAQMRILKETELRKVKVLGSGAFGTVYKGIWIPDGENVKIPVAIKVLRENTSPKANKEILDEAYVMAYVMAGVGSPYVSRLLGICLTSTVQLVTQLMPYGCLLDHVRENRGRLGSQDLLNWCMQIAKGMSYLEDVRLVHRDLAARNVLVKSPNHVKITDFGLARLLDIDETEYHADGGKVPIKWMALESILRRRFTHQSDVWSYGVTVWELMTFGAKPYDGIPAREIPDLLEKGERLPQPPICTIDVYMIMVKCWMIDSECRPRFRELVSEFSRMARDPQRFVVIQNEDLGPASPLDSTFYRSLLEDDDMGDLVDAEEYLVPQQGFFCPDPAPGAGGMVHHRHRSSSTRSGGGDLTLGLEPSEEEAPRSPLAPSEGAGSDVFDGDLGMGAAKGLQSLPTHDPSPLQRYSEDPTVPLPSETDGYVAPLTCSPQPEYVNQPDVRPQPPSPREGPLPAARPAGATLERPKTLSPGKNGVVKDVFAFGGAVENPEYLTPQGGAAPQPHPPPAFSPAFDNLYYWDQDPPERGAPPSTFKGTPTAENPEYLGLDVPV
T1 sequence (P00533 25-1210): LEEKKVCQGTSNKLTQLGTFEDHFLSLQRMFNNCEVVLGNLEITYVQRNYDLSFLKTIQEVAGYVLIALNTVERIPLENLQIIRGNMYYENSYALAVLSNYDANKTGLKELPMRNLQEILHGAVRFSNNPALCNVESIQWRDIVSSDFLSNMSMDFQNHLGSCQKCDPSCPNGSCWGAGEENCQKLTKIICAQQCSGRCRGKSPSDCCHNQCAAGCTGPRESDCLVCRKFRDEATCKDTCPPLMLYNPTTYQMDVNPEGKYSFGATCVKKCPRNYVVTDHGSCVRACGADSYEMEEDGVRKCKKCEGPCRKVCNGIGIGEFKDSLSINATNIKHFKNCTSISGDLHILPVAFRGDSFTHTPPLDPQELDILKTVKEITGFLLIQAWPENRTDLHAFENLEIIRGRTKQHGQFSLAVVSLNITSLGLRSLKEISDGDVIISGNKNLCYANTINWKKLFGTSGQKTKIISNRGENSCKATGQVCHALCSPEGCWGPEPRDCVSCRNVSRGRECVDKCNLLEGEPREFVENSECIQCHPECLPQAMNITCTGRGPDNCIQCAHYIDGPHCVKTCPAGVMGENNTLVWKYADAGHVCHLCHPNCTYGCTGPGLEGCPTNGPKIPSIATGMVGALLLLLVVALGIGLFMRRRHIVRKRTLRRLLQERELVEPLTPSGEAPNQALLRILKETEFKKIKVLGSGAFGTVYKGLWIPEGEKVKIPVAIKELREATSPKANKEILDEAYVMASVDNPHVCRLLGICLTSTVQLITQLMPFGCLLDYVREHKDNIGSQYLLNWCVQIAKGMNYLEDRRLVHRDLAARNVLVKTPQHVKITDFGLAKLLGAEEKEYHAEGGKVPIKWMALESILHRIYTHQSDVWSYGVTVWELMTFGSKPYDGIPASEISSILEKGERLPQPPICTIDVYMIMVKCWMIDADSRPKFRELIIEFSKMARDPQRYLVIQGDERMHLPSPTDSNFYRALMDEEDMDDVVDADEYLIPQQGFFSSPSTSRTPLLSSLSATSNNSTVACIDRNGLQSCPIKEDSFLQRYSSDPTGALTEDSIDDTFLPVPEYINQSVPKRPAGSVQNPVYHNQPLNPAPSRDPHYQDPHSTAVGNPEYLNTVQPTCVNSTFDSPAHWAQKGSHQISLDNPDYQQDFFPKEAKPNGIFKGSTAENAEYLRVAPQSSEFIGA
BaF3_HER2YVMA cells, sequence (P04626 with tags, fused parts or gaps DUP772-775): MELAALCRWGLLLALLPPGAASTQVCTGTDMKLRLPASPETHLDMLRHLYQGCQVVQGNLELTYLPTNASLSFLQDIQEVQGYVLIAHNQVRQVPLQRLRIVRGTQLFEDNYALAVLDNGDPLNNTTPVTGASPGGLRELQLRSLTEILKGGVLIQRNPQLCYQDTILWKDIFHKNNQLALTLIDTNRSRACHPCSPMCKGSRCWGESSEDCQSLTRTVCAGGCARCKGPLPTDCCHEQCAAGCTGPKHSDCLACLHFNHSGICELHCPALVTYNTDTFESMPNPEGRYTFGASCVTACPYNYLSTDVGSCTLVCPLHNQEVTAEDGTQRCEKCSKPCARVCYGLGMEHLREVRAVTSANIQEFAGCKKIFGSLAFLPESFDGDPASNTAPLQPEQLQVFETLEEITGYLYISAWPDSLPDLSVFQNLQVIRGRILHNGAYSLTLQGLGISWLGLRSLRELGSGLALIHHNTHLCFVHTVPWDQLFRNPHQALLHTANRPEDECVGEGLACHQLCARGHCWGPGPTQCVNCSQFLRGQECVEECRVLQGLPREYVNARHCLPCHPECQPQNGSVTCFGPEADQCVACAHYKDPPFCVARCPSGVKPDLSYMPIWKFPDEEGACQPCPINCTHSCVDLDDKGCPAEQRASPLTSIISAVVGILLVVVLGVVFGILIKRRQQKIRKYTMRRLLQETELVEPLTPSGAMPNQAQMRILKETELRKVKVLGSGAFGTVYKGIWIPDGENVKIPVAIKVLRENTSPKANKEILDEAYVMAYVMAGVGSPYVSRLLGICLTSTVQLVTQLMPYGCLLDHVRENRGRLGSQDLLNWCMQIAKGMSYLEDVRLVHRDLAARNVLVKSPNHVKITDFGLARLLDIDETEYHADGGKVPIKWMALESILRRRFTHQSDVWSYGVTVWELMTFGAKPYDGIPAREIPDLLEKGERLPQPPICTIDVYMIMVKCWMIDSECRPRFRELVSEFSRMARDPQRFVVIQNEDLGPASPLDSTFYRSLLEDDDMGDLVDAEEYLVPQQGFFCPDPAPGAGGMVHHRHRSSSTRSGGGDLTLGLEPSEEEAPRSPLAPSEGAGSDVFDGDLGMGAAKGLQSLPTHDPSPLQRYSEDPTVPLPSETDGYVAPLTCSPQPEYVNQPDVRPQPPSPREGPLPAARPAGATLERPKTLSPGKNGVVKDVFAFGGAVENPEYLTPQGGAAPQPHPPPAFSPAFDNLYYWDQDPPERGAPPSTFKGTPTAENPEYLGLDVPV

Regarding `C=CC(=O)NC1CCN(C(=O)c2ccn3ncnc(Nc4ccc(Oc5ccn6ncnc6c5)c(C)c4)c23)C1` (stereo not shown) [Example 4, N-(1-(4-((4-([1,2,4]triazolo[1,5-a]pyridin-7-yloxy)-3-methylphenyl)amino)pyrrolo[2,1-f][1,2,4]triazine-5-carbonyl)pyrrolidin-3-yl)acrylamide], the GI50 on BaF3_HER2WT cells was less than 200 nM; at BaF3_EGFRWT cells, 1.5 to 5 µM; on BaF3_HER2YVMA cells it was less than 200 nM. Further, the results for the IC50 (at wtEGFR; on wtERBB2 (Her2 WT); in experiment [1]) were 1500 to 5000 nM, less than 200 nM and less than 200 nM, respectively.
Take `Cc1cc(Nc2ncnn3ccc(C4CCN(C(=O)CCCN(C)C)CC4)c23)ccc1Oc1ccn2ncnc2c1` [Example 23, 1-(4-(4-((4-([1,2,4]triazolo[1,5-a]pyridin-7-yloxy)-3-methylphenyl)amino)pyrrolo[2,1-f][1,2,4]triazin-5-yl)piperidin-1-yl)-4-(dimethylamino)butan-1-one]: the values for the GI50 at BaF3_HER2WT cells, on BaF3_EGFRWT cells and at BaF3_HER2YVMA cells were 500 to 1500 nM, 1.5 to 5 µM and 1500 to 5000 nM, respectively. Also, the figures for the IC50 (on wtEGFR; in experiment [1]) were 500 to 1500 nM and less than 200 nM, respectively.
With `Cc1cc(Nc2c(C#N)cnn3ccc(C4CN(C(=O)/C=C/CN(C)C)C4)c23)ccc1Oc1ccn2ncnc2c1` [Example 86, (E)-4-((4-([1,2,4]triazolo[1,5-a]pyridin-7-yloxy)-3-methylphenyl)amino)-5-(1-(4-(dimethylamino)-but-2-enoyl)azetidin-3-yl)pyrrolo[1,2-b]pyridazine-3-carbonitrile], the GI50 on BaF3_HER2WT cells is 1500 to 5000 nM; at BaF3_EGFRWT cells, 1.5 to 5 µM; at BaF3_HER2YVMA cells it was more than 5000 nM. Besides, the concentration for half-maximal inhibition (IC50) (on wtEGFR; against wtERBB2 (Her2 WT); in experiment [1]) was 1500 to 5000 nM in each case.
For `Cc1cc(Nc2ncnn3ccc(C4CN(C(=O)/C=C/CN)C4)c23)ccc1Oc1ccn2ncnc2c1` [Example 87, (E)-1-(3-(4-((4-([1,2,4]triazolo[1,5-a]pyridin-7-yloxy)-3-methylphenyl)amino)pyrrolo[2,1-f][1,2,4]triazin-5-yl)azetidin-1-yl)-4-aminobut-2-en-1-one], the GI50 was in the range of 1500 to 5000 nM at BaF3_HER2WT cells, 1.5 to 5 µM at BaF3_EGFRWT cells and 1500 to 5000 nM at BaF3_HER2YVMA cells. Further, the IC50 (as a rule, the concentration that inhibits the measured activity by half) on wtEGFR was 200 to 500 nM; in experiment [1], less than 200 nM.
For `Cc1cc(Nc2ncnn3ccc(C4CN(C(=O)/C=C/CN5CC(F)(F)C5)C4)c23)ccc1Oc1ccn2ncnc2c1` [Example 91, (E)-1-(3-(4-((4-([1,2,4]triazolo[1,5-a]pyridin-7-yloxy)-3-methylphenyl)amino)pyrrolo[2,1-f][1,2,4]-triazin-5-yl)azetidin-1-yl)-4-(3,3-difluoroazetidin-1-yl)but-2-en-1-one], the GI50 is less than 200 nM on BaF3_HER2WT cells, 1.5 to 5 µM on BaF3_EGFRWT cells and 500 to 1500 nM on BaF3_HER2YVMA cells. For the same compound, the values for the IC50 (at wtEGFR; in experiment [1]) were 500 to 1500 nM and less than 200 nM, respectively.
Consider `Cc1cc(Nc2ncnn3ccc(C4CCCN(C(=O)/C=C/CN(C)C)CC4)c23)ccc1Oc1ccn2ncnc2c1` (stereo not shown) [Example 93, (E)-1-(4-(4-((4-([1,2,4]triazolo[1,5-a]pyridin-7-yloxy)-3-methylphenyl)amino)pyrrolo[2,1-f][1,2,4]triazin-5-yl)azepan-1-yl)-4-(dimethylamino)but-2-en-1-one], for which the GI50 on BaF3_HER2WT cells was less than 200 nM; on BaF3_EGFRWT cells, 1.5 to 5 µM; on BaF3_HER2YVMA cells, less than 200 nM. Further, the results for the IC50 (at wtEGFR; in experiment [1]) were 200 to 500 nM and less than 200 nM, respectively.
Regarding `Cc1cc(Nc2ncnn3ccc(C4CC5(C4)CN(C(=O)/C=C/CN(C)C)C5)c23)ccc1Oc1ccn2ncnc2c1` [Example 95, (E)-1-(6-(4-((4-([1,2,4]triazolo[1,5-a]pyridin-7-yloxy)-3-methylphenyl)amino)pyrrolo[2,1-f][1,2,4]triazin-5-yl)-2-azaspiro[3.3]heptan-2-yl)-4-(dimethylamino)but-2-en-1-one], the GI50 lay in the range of 200 to 500 nM at BaF3_HER2WT cells, 1.5 to 5 µM at BaF3_EGFRWT cells and 500 to 1500 nM on BaF3_HER2YVMA cells. In addition, the IC50 is 200 to 500 nM on wtEGFR and less than 200 nM in experiment [1].
As for `Cc1cc(Nc2ncnn3ccc(C4CCCN(C(=O)/C=C/CN(C)C)C4)c23)ccc1Oc1ccn2ncnc2c1` (stereo not shown) [Example 96, (E)-1-(3-(4-((4-([1,2,4]triazolo[1,5-a]pyridin-7-yloxy)-3-methylphenyl)amino)-pyrrolo-[2,1-f][1,2,4]-triazin-5-yl)piperidin-1-yl)-4-(dimethylamino)but-2-en-1-one], the figures for the GI50 at BaF3_HER2WT cells, at BaF3_EGFRWT cells and at BaF3_HER2YVMA cells were less than 200 nM, 1.5 to 5 µM and 500 to 1500 nM, respectively. For the same compound, the half-inhibitory concentration (IC50) was 500 to 1500 nM at wtEGFR and less than 200 nM in experiment [1].
In the case of `Cc1cc(Nc2ncnn3ccc(C4CN(C(=O)/C=C/CN5CCC5)C4)c23)ccc1Oc1ccn2ncnc2c1` [Example 102, (E)-1-(3-(4-((4-([1,2,4]triazolo[1,5-a]pyridin-7-yloxy)-3-methylphenyl)amino)pyrrolo[2,1-f][1,2,4]triazin-5-yl)azetidin-1-yl)-4-(azetidin-1-yl)but-2-en-1-one], the figures for the GI50 at BaF3_HER2WT cells, at BaF3_EGFRWT cells and on BaF3_HER2YVMA cells were 500 to 1500 nM, 1.5 to 5 µM and 1500 to 5000 nM, respectively. Moreover, the half-maximal inhibitory concentration (IC50) at wtEGFR was 1500 to 5000 nM; in experiment [1], less than 200 nM.
For the compound `Cc1cc(Nc2ncnn3ccc(-c4cnn(CCNC(=O)/C=C/CN(C)C)c4)c23)ccc1Oc1ccn2ncnc2c1` [Example 103, (E)-N-(2-(4-(4-((4-([1,2,4]triazolo[1,5-a]pyridin-7-yloxy)-3-methylphenyl)amino)pyrrolo[2,1-f][1,2,4]triazin-5-yl)-1H-pyrazol-1-yl)ethyl)-4-(dimethylamino)but-2-enamide], the GI50 at BaF3_HER2WT cells lay in the range of 1500 to 5000 nM; on BaF3_EGFRWT cells, 1.5 to 5 µM; at BaF3_HER2YVMA cells, 1500 to 5000 nM. The values for the IC50 (on wtEGFR; in experiment [1]) were 1500 to 5000 nM and 200 to 500 nM, respectively.
As for `C=CC(=O)N1CCC2(C1)CN(c1ccn3ncnc(Nc4ccc(Oc5ccn6ncnc6c5)c(C)c4)c13)C2` [Example 155, 1-(2-{4-[(3-methyl-4-{[1,2,4]triazolo[1,5-a]pyridin-7-yloxy}phenyl)amino]pyrrolo[2,1-f][1,2,4]triazin-5-yl}-2,6-diazaspiro[3.4]octan-6-yl)prop-2-en-1-one], the GI50 at BaF3_HER2WT cells is less than 200 nM; on BaF3_EGFRWT cells it was 1.5 to 5 µM; on BaF3_HER2YVMA cells, 200 to 500 nM. In addition, the figures for the 50% inhibitory concentration (IC50) (at wtEGFR; in experiment [1]) were 1500 to 5000 nM and less than 200 nM, respectively.
On to `Cc1cc(Nc2ncnn3ccc(N4CC5(CCN(C(=O)/C=C/CN(C)C)C5)C4)c23)ccc1Oc1ccn2ncnc2c1` [Example 156, (2E)-4-(dimethylamino)-1-(2-{4-[(3-methyl-4-{[1,2,4]triazolo[1,5-a]pyridin-7-yloxy}phenyl)amino]pyrrolo[2,1-f][1,2,4]triazin-5-yl}-2,6-diazaspiro[3.4]octan-6-yl)but-2-en-1-one], for which the GI50 on BaF3_HER2WT cells fell in the range of 200 to 500 nM; at BaF3_EGFRWT cells it was 1.5 to 5 µM; on BaF3_HER2YVMA cells it was 1500 to 5000 nM. Moreover, the values for the half-maximal inhibitory concentration (IC50) (at wtEGFR; in experiment [1]) were 500 to 1500 nM and less than 200 nM, respectively.
With `Cc1cc(Nc2ncnn3ccc(C(=O)NCCCN(C)C)c23)ccc1Oc1ccn2ncnc2c1` [Example 178, 4-((4-([1,2,4]triazolo[1,5-a]pyridin-7-yloxy)-3-methylphenyl)amino)-N-(3-(dimethylamino)-propyl)pyrrolo[2,1-f][1,2,4]triazine-5-carboxamide], the GI50 is 200 to 500 nM at BaF3_HER2WT cells, more than 5 µM on BaF3_EGFRWT cells and 1500 to 5000 nM on BaF3_HER2YVMA cells. Also, the IC50 was 500 to 1500 nM on wtEGFR and less than 200 nM in experiment [1].

For the origin of these results see US20240132521A1, “COMPOUNDS AND METHODS FOR MODULATING HER2” (Iambic Therapeutics, Inc., priority 2022, published 2024).
